Test results published in patent US7906334B2, “Method for reproducing conifers by somatic embryogenesis using lactose as a carbon source” (Cellfor Inc., priority 2003, dated 2011).

What was measured:
[1] = tested on: Loblolly pine megagametophytes containing immature zygotic embryos; assay: Effect of carbon source on induction of loblolly pine; assay type: cell-based, Pinus taeda (loblolly pine)
Description: Female gametophytes containing the immature zygotic embryos were used as explants. The cones were surface sterilized in 10% bleach solution for 15 min. They were rinsed 3 times with sterile water, air dried and stored in polyethylene bags at 4° C. until used. Seeds were sterilized in 3% hydrogen peroxide containing 0.1% Tween 20 and rinsed in sterile deionized water. Megagametophytes containing the immature embryos were plated on TX medium (Table A) supplemented with 2.2 mg/l 2,4-D, 1 mg/l BA and 0.3% Phytagel and containing either 1% sucrose, or 1.5% lactose and 0.025% glucose.
Cultures were maintained on the two media by subculturing the embryogenic tissue every 10 to 14 days to fresh media. All cultures were incubated at 23° C. in the dark.

[2] = tested on: loblolly pine embryogenic tissue; assay: Effect of carbon source on solid maintenance of loblolly pine; assay type: cell-based, Pinus taeda (loblolly pine); conditions: semi-solid TX medium; 1% sucrose, or 1.5% lactose and 0.025% glucose
Description: Tissue induced on sucrose from Example 1 was further maintained on the semi-solid TX medium containing 1% sucrose, and tissue induced on lactose was maintained on semi-solid TX medium containing 1.5% lactose and 0.025% glucose. The tissue morphology of the lines induced on lactose was different from the ones induced on sucrose. […] In order to further increase the proliferation rate, 0.5% sucrose was added to the TX 1.5% lactose-containing medium in place of 0.025% glucose. This medium provided a reasonable bulk-up rate, and growth of embryos was more synchronized than in the 1% sucrose medium.

[3] = tested on: Suspension cultures of loblolly lines LP1, LP2, LP3, LP4 and LP5; assay: Effect of carbon source on liquid maintenance: growth rate and yield of somatic embryos; assay type: cell-based, Pinus taeda (loblolly pine); conditions: 1% sucrose
Description: Suspension cultures of loblolly lines LP1, LP2, LP3, LP4 and LP5 were started with 2 g of tissue introduced to 50 ml of TX liquid medium containing different sugars—1% sucrose, 1.5% maltose, or 1.5% lactose. These cultures were maintained in the same liquid media for 2 weeks by weekly transfers to fresh maintenance medium containing the above sugars. Then, 2 g of tissue produced in each maintenance medium was transferred to prematuration media I, containing the same carbon source as the maintenance media. After one week, 1.5 g of tissue from each prematuration medium I was transferred to prematuration media II containing the same sugars. After the 4 week period in liquid media, early stage somatic embryos were collected and plated on ½ LV maturation medium containing 120 μM ABA and 6.0% sucrose and 1% Phytagel. Eight to ten weeks later, mature somatic embryos were counted and treatments were evaluated based on the number of somatic embryos per gram fresh weight (SE/g FW). Table 2 summarises the tissue yield at the end of the 4-week period and the number of mature somatic embryos produced for each line.

[4] = tested on: loblolly pine lines LP2, LP3 and LP4; assay: Effect of lactose during the prematuration steps; assay type: cell-based, Pinus taeda (loblolly pine); conditions: 1% sucrose maintenance
Description: Prematuration for loblolly pine may be performed in two steps: • 1. Prematuration I requires reduction of hormones either by reducing the auxin and cytokinin concentrations to optimally about 1/20 of the concentration of proliferation step, or by adding charcoal at about 0.01 to 1%, or a combination of both. • 2. Prematuration II follows prematuration I and requires an addition of ABA at concentrations of about 5 to 120 μM, preferably 90 μM and no auxin and cytokinins.
In order to further understand the effect of lactose on somatic embryo development, liquid maintenance cultures were started in TX medium containing 1% sucrose as in Example 3. Three lines were used in this experiment, LP2, LP3 and LP4. After the proliferation step, 2 g of the tissue was transferred for one week to prematuration medium I containing different concentrations of lactose—1.5%, 3% and 6%. After that, 1.5 g of tissue produced in the lactose-containing media was further cultured for a week in prematuration medium II containing the same amount of lactose. 3.

[5] = tested on: loblolly pine lines LP1 and LP3; assay: Effect of galactose and galactose-containing sugars during proliferation and prematuration on SE yield; assay type: cell-based, Pinus taeda (loblolly pine); design: Amount of tissue at the end of the preculture II stage: unit not given here; conditions: for # SE/g FW / Amount of tissue at the end of the preculture II stage: 1% sucrose, 1.5% maltose, 1.5% lactose or 0.75% galactose
Description: The finding that loblolly pine cultures were capable of utilising galactose is unique. In order to further investigate these phenomenon two lines, LP1 and LP3, were cultured on semi-solid TX medium containing 1.0% lactose and 0.5% sucrose. Cultures were maintained by subculturing the embryogenic tissue every 10 to 14 days to fresh media. All cultures were incubated at 23° C. in the dark. Suspension cultures were initiated as described in Example 3, however, TX medium was supplemented with either 1% sucrose, 1.5% maltose, 1.5% lactose, or 0.75% galactose. These cultures were maintained in liquid media for 4 weeks by weekly transfers to fresh maintenance or prematuration media. After the 4˜week period, 1 ml of the liquid medium containing 0.1 g of tissue consisting of early stage somatic embryos was plated on each […] plates containing ½ LV maturation medium. This medium contained 120 μM ABA and 6.0% sucrose and 1% Phytagel. Eight to ten weeks later, mature somatic embryos were counted and treatments were evaluated based on the number of somatic embryos per gram fresh weight (Table 5).

[6] = tested on: Douglas fir embryogenic tissue, cell line DF-2; assay: Effects of carbohydrates on liquid maintenance of Douglas fir embryogenic tissue; assay type: cell-based, Pseudotsuga menziesii (Douglas fir); conditions: 3 weeks suspension maintenance/bulking-up, 0.5% galactose, 1% lactose, 0.5% mannitol
Description: The culture medium for Douglas fir was TX medium (see Table A) with the following additives: glutamine 100 mg., Casein hydrolysate 100 mg., and pH 5.8. The following compounds were added into the basal medium for Douglas fir somatic embryo development at different stages: • 1) Induction medium: 18 μM 2,4-D and 9 μM BA, phytagel 0.28%, sucrose 1% • 2) Solid maintenance medium: 9 μM 2,4-D and 4.5 μM BA, phytagel 0.28%, sucrose 1%. • 3) Liquid maintenance and bulking-up medium: 9 μM 2,4-D and 4.5 μM BA, different carbon sources for experiments. • 4) Liquid pre-treatment medium: 20 (first week) or 30 μM ABA (second week), 10% PEG4000 (first week) or PEG1500 (second week), different carbon sources as described in examples below. • 5) Solid maturation media: TX (Table A) plus 0.02% NH4NO3 • Medium I. 40 μM ABA, 10% PEG 1500, maltose 2.5%, phytagel 0.6% • Medium II. 60 μM ABA, 10% PEG1500, maltose 2.5% and sucrose 1%, phytagel 0.8% • Medium III. 70 μM ABA, 6% PEG1500, sucrose 6%, phytagel 1%.
Embryogenic tissue was induced from immature zygotic embryos. The cones and seeds were surface-sterilised as described for pines, and embryos were dissected out from megagametophytes. The embryos, with the attachment of suspensors to their megagametophytes, were placed on the surface of induction medium. The culture was kept in darkness at 23° C. Embryogenic tissue was sub-cultured once every two weeks onto solid maintenance medium.
Embryogenic tissue of Douglas fir was collected from solid maintenance culture and one gram of tissue was transferred into a 200 ml flask containing 50 ml TX (see Table A) liquid maintenance medium. The liquid maintenance medium was supplied with different sugars (Table 8).
The tissue was drained, weighed and sub-cultured once per week. During a culture period of three weeks, the highest tissue growth was found in the culture with glucose as the major carbon source. The media containing sucrose, maltose and galactose also supported a fast tissue growth. With these latter sugars, tissue increased to 68 to 100 fold in three weeks. Tissue grew little in the media containing lactose or mannitol. […] Similar results were obtained within two cell lines, DF-7A and DF-2.

[7] = tested on: Douglas fir embryogenic tissue; assay: Medium osmolarity before and after one-week tissue inoculation; assay type: cell-based, Pseudotsuga menziesii (Douglas fir); conditions: medium with 0.5% galactose, 1% lactose, 0.5% mannitol or 0.5% glucose
From the text: More change of medium osmolarity occurred during week 2 than week 1. The medium osmolarity changed little when lactose or mannitol was used in the media.

[8] = then 1.5% lactose in prematuration I and II
[9] = then 3% lactose in prematuration I and II
[10] = then 6% lactose in prematuration I and II

OC[C@H]1O[C@@H](O[C@H]2[C@H](O)[C@@H](O)C(O)O[C@@H]2CO)[C@H](O)[C@@H](O)[C@H]1O (stereo partly drawn) [Lactose]
Induction success, lactose medium compared with sucrose medium [1]: greater than three times higher | tissue morphology [2]: more early-stage immature embryos and a limited amount of suspensor type of surrounding tissue | # SE/g FW ± sd ([3]; 1.5% maltose or 1.5% lactose for 4 weeks in liquid, then 8-10 weeks on 1/2 LV maturation medium): 393 ± 10 SE/g FW | Average amount of tissue produced after 4 weeks in liquid (FW g) ([3]; 1.5% maltose or 1.5% lactose in maintenance and prematuration I and II, started with 2 g): 18.63 g | Mean # SE/g FW ± sd [4, 8]: 106 ± 9 SE/g FW | Mean grams FW at the end of prematuration stage [4, 8]: 121.90 g | Mean # SE/g FW ± sd [4, 9]: 209 ± 7 SE/g FW | Mean grams FW at the end of prematuration stage [4, 9]: 216.47 g | Mean # SE/g FW ± sd [4, 10]: 169 ± 10 SE/g FW | Mean grams FW at the end of prematuration stage [4, 10]: 149.13 g | embryos produced ([5]; line LP1, as stated in the text): over 1000 embryos | # SE/g FW ([5]; line LP1): 1060 ± 17 SE/g FW | Amount of tissue at the end of the preculture II stage ([5]; line LP1): 28.9 | # SE/g FW ([5]; line LP3): 110 ± 7 SE/g FW | Amount of tissue at the end of the preculture II stage ([5]; line LP3): 8.78 | Tissue growth (fold, mean ± SD) ([6]; additional glucose 0%, 0.5% glucose, 1% sucrose, 1% maltose): 1.40 ± 0.14 fold | Tissue growth (fold, mean ± SD) ([6]; additional glucose 0.025%): 2.75 ± 0.24 fold | Osmolarity before inoculation (mmol/kg, mean ± SD) [7]: 93.33 ± 0.58 mmol/kg
